Laboratory results reported in patent US5980933A, “Transdermal formulation of xanomeline” (Eli Liily and Company, priority 1997, dated 1999).

Key:
[1] = system: muscarinic receptors in the brain; experiment: Ex vivo 3H-pirenzepine binding in rat brain after patch application; conditions: after oral administration
Method: The patches prepared as stated herein were applied to rats. The rats were killed in pairs at various time points after application and the rat brains were removed and frozen. The binding of the M1 antagonist ligand, ^3 H-pirenzepine, to muscarinic receptors in the brain was determined. The decrease in binding is indicative of drug or active metabolite present in the brain. The effect of the drug after oral administration lasts less than 6 hours. The percent of control ex vivo pirenzepine binding at 6 hours was 33%, at 12 hours 15%, at 24 hours 26%, and at 48 hours 53%. The mean plasma concentration using this patch formulation was as follows: […]
The patches prepared as stated herein were applied to rats. The rats were killed in pairs at various time points after application and the rat brains were removed and frozen. The binding of the M1 antagonist ligand, ^3 H-pirenzepine, to muscarinic receptors in the brain was determined. The decrease in binding is indicative of drug or active metabolite present in the brain. The effect of the drug after oral administration lasts less than 6 hours. The percent of control ex vivo pirenzepine binding at 6 hours was 101%, at 12 hours 89%, at 24 hours 75%, and at 48 hours 105%.

[2] = Saturation limit of xanomeline in acrylic adhesive; assay type: physicochemical
Description: The values had been derived from clear solutions of the drug in the adhesive. Unfortunately, the saturation limit of about 23-28% (w/w) in this polymer limits the utilization of this unexpected advantage of highly enriched xanomeline preparations. It is concluded from this unexpected results that an optimum formulation has to contain a slightly subsaturated, saturated or even supersaturated amount of xanomeline for best performance.

saturation limit in this polymer [2]: 23-28 % (w/w)
Structure (SMILES): CCCCCCOc1nsnc1C1=CCCN(C)C1 [xanomeline, 3-[4-(hexyloxy)-1,2,5-thiadiazol-3-yl]-1,2,5,6-tetrahydro-1-methylpyridine]
duration of the effect of the drug [1]: less than 6 hours
